Source: US10765732B2, “Compounds and methods for affecting cytokines” (Zivo Bioscience, Inc., priority 2013, dated 2020)

Columns and labels:
Format in all cases: cell-based, human
[1] = tested on: IL-2; assay: ELISA of IL-2 secretion by cultured PBMC; conditions: PMA (with ionomycin) alone
Method: (§1) According to this exemplary embodiment, phyto-percolate and the flow-through/F4 were tested as they appeared in their original concentrations right off the columns, only diluted 1:20 and 1:100 as described herein. The culture of peripheral blood mononuclear cells (“PBMC”) is prepared from two vials of frozen PBMCs that were obtained from normal healthy human subjects by a commercial vendor, and were added to 2×10 ml medium and centrifuged. PBMCs were resuspended and cultured in RPMI1640/5% FBS for 24 h. (1 vial of frozen cells in 11 ml medium).
(§2) Treatment agents for this exemplary method comprise three agents: unseparated phyto-percolate (‘PAZ’), fraction 3 (‘F3’), fraction 4 (‘F4’). Treatment concentration for each was 1:20 and 1:100. […]
(§3) According to this exemplary embodiment, seeding, treatment, and detection are accomplished by the following steps. Two dishes of PBMCs were combined and the small amount of PBMCs was stained with 0.4% Trypan blue and the cell number of PBMCs was counted using known techniques.
(§4) In this embodiment, an enzyme linked immune-sorbent assay (“ELISA”) analysis of inflammatory cytokine secretion, (a protocol provided in a commercial kit for the parallel quantification of the production of human cytokines), was employed. […]

[2] = tested on: IL-17A; assay: ELISA of IL-17A secretion by cultured PBMC; conditions: PMA (with ionomycin) alone
Method: as §1, §2, §3, §4

[3] = tested on: IFN-γ; assay: ELISA of IFN-γ secretion by cultured PBMC; conditions: PMA (with ionomycin) alone
Method: as §1, §2, §3, §4

[4] = tested on: TNF-α; assay: ELISA of TNF-α secretion by cultured PBMC; conditions: PMA (with ionomycin) alone
Method: as §1, §2, §3, §4

[5] = tested on: GM-CSF; assay: ELISA of GM-CSF secretion by cultured PBMC; conditions: PMA (with ionomycin) alone
Method: as §1, §2, §3, §4

[6] = tested on: NF-κB; assay: Electrophoretic mobility shift assay (EMSA) of NF-κB DNA-binding activity in nuclear protein of cultured PBMC; conditions: TNF-α (50 ng/ml) added alone 1 h before harvesting, untreated control = 1.0
Method: as §1
Treatment agents for this exemplary method comprise three agents: unseparated phyto-percolate (‘PAZ’), fraction 3 (‘F3’), fraction 4 (‘F4’). Treatment concentration for each was 1:20 and 1:100. An exemplary sample preparation method for each agent by dilution is as follows: First, a 1:10 dilution is prepared by combining 0.7 ml agent (PAZ, F3, or F4)+6.3 ml RPMI1640/5% FBS to obtain a total volume of 7 ml of a 1:10 solution. […]
Analysis of the effect of phyto-percolate or fractions isolated therefrom on the DNA-binding activity of NF-κB in the nuclear protein fractions of the cultured PBMC was determined as follows in this exemplary embodiment: approximately 18.26 mL of suspended PBMC were added to approximately 18 mL of culture medium and 2 mL of this cell suspension (2,718,000 cells in 2 mL) were seeded into each 60 mm culture dish. […]

Compound	quantity of IL-2 produced [1]	production and secretion of IL-17A [2]	IFN-γ secreted [3]	production and secretion of TNF-α [4]	production and secretion of GM-CSF [5]	DNA-binding activity of NF-κB (relative level) [6] [relative unit]
CCCCCCCCCCCCCC(=O)O[C@@H]1[C@@H](C)[C@@]2(O)[C@@H](C=C(CO)C[C@]3(O)C(=O)C(C)=C[C@@H]23)[C@@H]2C(C)(C)[C@]12OC(C)=O [PMA, phorbol myristate acetate]	approximately 125 pg/100,000 cells	approximately 3 pg/100,000 cells	approximately 70 pg/100,000 cells	approximately 50 pg/100,000 cells	approximately 50 pg/100,000 cells	
TNF-α						~2.0
